Measurements from ChEMBL document CHEMBL1201862, “PubChem BioAssay data set” (2004).
Activity calls are given as the source filed them.

Columns and labels:
Prothrombin = Prothrombin (Homo sapiens, UniProt P00734); assay: Thrombin 1536 HTS Dose Response Confirmation. [Related pubchem assays: 1046 (Thrombin 1536 HTS; hits were confirmed in this assay)]; type: functional
[1] = viability of uninfected HEp-2 cells – cell-based, HTS, cytotoxicity control for RSV inhibitor project, dose response (AID 2410); type: functional; settings: human respiratory syncytial virus
[2] = target: T1, Heat shock factor protein 1 (Mus musculus, UniProt P38532); assay: enhancement of HSF1-driven luciferase signal – cell-based, NIH3T3, luminescence, dose retest, confirmation (AID 435004); type: functional;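 note: stress induced by proteasome inhibitor MG132 added 30 min after compound; luciferase reporter driven by HSF1 response element in NIH3T3 cells; actives raise luminescence as potentiators of the MG132 stress response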
T1 sequence (P38532 whole entry): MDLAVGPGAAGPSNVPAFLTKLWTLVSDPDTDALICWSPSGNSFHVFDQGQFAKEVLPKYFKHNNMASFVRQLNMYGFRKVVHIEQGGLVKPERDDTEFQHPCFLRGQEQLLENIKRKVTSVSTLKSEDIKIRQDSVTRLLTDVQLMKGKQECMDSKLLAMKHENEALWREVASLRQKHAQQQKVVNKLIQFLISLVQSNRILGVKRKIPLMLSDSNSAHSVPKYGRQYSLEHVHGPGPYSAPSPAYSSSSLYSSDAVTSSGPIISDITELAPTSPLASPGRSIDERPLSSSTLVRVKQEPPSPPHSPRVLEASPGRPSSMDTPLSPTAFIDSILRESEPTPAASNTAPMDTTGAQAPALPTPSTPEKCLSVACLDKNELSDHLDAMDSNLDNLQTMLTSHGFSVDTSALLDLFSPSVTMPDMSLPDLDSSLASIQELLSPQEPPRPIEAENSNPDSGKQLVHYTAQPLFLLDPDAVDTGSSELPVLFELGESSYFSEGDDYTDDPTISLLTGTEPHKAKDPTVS

cells [3] = assay: cells
[4] = target: T1, Heat shock factor protein 1; assay: decrease of HSF1-responsive luciferase luminescence – cell-based, NIH3T3, dose retest, confirmation (AID 2382); type: functional;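 note: NIH3T3 fibroblasts with HSF1-driven luciferase reporter stressed by proteasome inhibitor MG132; luminescence from HSF1-driven luciferase expression after 8 hours of MG132 stress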
[5] = viability loss in THP-1 monocytes – THP-1 cells, cytotoxicity control for Vif-APOBEC3G degradation inhibitor project, dose response (AID 1117359); type: functional; settings: THP-1
Vero [6] = assay: cells; type: functional, cell-based; settings: Chlorocebus sabaeus
Vero [7] = assay: cells; type: functional; settings: Chlorocebus sabaeus
[8] = viability of PTEN-deleted HCT116 cells – cell-based, HCT116 PTEN knockout, dose response (AID 1047); type: functional;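 note: HCT116 colon tumor cells with PTEN knocked out; cells exposed to compound for 60 hours before readout; potency for loss of cell viability measured by luminescence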
[9] = viability of HCT116 lacking mutant beta-catenin – cell-based, human colon tumor, dose response (AID 1045); type: functional;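 note: HCT116 colon tumor cells with beta catenin knocked out; cells exposed to compound for 60 hours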
[10] = Luminescence Cell-Based Dose Retest to Confirm Inhibitors of Cancer Stem Cells. [Related pubchem assays (depositor defined):AID2717, AID2721]; type: functional; settings: Homo sapiens
INS1 = assay: INS-1E survival protection against cytokine death – cell-based, luminescence, retest, dose response (AID 449756); type: functional; settings: Rattus norvegicus;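 note: cell death triggered by IL-1 beta plus TNF-alpha plus IFN-gamma mixture; protective hits raise ATP signal compared with cytokine alone wells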
[11] = target: T2, Replicative DNA helicase DnaB (Mycobacterium tuberculosis, UniProt P9WMR3); assay: DnaB intein splicing inhibitors, dose response, biochemical, cell-free fluorescence (AID 449749); type: functional
T2 sequence (P9WMR3 whole entry): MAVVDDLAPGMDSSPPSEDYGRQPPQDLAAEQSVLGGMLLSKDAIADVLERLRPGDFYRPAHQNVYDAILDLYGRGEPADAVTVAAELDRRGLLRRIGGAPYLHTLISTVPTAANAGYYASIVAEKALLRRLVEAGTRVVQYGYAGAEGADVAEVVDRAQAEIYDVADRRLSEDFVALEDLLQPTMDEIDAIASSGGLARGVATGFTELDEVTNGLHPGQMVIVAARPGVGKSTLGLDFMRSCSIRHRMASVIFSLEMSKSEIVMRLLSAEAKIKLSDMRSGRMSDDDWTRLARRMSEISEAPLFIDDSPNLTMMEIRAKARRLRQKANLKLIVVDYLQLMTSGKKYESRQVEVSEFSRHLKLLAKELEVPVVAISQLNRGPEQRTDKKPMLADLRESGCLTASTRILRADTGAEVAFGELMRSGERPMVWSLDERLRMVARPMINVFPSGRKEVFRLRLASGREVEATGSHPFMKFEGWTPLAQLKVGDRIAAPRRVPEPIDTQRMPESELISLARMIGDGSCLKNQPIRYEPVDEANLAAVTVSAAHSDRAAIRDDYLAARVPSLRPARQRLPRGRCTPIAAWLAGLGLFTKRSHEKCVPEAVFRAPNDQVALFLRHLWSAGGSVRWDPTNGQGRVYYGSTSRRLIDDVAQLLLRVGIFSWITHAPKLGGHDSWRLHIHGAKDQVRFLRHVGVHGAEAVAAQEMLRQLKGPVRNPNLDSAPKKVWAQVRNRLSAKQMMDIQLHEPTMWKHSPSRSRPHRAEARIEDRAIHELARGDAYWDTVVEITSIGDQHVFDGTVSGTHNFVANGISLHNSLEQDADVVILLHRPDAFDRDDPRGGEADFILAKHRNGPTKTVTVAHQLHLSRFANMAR

Protein RecA = target: T3, Protein RecA (Mycobacterium tuberculosis, UniProt P9WHJ3); assay: Fluorescence Cell-Free Homogeneous Dose Retest to Identify Inhibitors of RecA-Intein Splicing Activity. [Related pubchem assays (depositor defined):AID2097, AID2223, AID489010, AID492950]; type: functional
T3 sequence (P9WHJ3 whole entry): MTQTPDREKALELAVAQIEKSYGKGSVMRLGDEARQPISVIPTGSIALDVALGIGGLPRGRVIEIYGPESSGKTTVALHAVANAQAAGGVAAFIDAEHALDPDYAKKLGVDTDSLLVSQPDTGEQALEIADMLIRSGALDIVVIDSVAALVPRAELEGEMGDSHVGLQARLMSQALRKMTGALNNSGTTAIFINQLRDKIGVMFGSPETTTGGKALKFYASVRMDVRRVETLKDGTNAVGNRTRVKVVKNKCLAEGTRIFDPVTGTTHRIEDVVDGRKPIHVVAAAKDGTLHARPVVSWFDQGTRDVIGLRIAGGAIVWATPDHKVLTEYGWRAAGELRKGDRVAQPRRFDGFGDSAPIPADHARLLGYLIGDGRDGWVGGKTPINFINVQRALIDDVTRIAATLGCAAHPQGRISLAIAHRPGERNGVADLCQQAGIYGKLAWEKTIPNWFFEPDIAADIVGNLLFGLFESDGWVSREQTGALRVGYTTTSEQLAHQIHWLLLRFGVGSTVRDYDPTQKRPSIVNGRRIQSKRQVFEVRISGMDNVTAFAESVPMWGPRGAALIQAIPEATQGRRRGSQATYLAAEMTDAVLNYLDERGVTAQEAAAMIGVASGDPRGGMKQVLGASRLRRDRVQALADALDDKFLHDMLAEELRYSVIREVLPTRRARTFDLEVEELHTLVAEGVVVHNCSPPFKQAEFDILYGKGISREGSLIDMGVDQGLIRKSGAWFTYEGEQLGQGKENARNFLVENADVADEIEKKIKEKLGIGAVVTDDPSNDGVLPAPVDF

[12] = target: FAD-linked sulfhydryl oxidase ALR (Homo sapiens, UniProt P55789); assay: ALR-catalysed DTT oxidation blockers – biochemical, H2O2 detection, luminescence, cherry-pick, dose response (AID 493248)
Caspase-6 = target: T4, Caspase-6 (Homo sapiens, UniProt P55212); assay: inhibition of CASP6 peptide cleavage – biochemical, VEID-R110 fluorescence, cherry-pick, dose response (AID 720632)
T4 sequence (P55212 whole entry): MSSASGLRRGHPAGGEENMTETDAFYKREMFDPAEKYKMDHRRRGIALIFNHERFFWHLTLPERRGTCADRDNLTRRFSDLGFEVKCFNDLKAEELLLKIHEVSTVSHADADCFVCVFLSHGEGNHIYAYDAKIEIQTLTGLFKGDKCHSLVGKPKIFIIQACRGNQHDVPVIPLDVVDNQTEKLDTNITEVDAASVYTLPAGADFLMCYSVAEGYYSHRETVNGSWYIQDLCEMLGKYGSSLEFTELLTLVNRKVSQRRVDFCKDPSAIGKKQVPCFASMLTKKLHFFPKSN

[13] = target: T5, Histone-lysine N-methyltransferase NSD2 (Homo sapiens, UniProt O96028); type: biochemical
T5 sequence (O96028 whole entry): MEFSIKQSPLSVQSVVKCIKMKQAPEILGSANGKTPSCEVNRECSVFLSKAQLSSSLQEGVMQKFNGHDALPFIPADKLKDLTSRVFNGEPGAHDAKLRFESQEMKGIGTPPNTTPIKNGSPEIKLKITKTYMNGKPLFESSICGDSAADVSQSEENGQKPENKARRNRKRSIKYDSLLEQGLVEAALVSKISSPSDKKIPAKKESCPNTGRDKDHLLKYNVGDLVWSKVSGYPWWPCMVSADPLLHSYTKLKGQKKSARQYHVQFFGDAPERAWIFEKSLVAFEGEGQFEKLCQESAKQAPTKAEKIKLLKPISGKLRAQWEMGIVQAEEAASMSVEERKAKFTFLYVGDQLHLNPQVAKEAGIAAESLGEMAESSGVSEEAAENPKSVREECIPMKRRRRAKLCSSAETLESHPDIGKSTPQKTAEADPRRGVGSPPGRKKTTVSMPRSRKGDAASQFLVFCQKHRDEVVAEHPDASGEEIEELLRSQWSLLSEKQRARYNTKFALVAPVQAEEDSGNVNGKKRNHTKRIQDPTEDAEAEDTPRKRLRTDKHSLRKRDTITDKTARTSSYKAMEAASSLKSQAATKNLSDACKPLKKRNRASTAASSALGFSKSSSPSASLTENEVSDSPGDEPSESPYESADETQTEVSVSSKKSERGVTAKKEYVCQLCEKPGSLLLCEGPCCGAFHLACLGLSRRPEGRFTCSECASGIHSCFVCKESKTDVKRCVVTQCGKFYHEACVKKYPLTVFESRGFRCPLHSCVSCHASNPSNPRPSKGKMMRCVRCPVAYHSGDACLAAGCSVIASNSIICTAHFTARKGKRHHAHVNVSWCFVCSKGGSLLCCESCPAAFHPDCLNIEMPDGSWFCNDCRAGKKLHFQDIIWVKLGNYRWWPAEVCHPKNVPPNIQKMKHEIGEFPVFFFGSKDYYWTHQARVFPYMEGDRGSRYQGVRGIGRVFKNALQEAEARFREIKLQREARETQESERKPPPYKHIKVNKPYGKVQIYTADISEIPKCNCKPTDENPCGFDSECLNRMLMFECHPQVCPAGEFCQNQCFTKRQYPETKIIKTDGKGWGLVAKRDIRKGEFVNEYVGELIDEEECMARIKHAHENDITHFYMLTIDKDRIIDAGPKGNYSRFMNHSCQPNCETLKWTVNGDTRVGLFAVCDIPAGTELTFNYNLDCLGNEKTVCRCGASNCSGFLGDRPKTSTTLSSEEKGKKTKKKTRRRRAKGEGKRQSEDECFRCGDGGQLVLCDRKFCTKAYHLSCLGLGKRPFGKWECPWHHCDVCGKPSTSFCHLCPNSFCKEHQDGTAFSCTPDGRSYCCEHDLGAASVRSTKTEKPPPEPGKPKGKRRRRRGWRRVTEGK

Estrogen receptor beta = Estrogen receptor beta (Homo sapiens, UniProt Q92731);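 note: recombinant ER-beta bound to coactivator SRC1 peptide in presence of estradiol agonist; inhibitors block coactivator peptide binding and lower the FRET signal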
[14] = Trypanosoma cruzi growth suppression in host cells – NIH3T3 host cells, beta-gal luminescence, confirmation (AID 2044); type: functional, cell-based;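 note: intracellular parasites grown in NIH/3T3 mouse fibroblasts as host cells; luminescent beta-galactosidase reporter signal from transgenic T. cruzi replicating inside host cells; inhibitors lower the luminescence signal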
[15] = NIH3T3 cell viability loss – ATP luminescence, mouse fibroblasts, counter-screen, dose response (AID 2010); type: functional, cell-based;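 note: cells exposed to compound for about 90 hours before reading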
cells [16] = assay: cells; remark: listed apart in the source
Paired box protein Pax-8 = Paired box protein Pax-8 (Homo sapiens, UniProt Q06710); assay: PAX8 transcriptional activity inhibition in RMG-I – RMG-I cells, luciferase, cherry-pick, dose response (AID 687027); type: functional, cell-based;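 note: luciferase reporter driven by Pax8 target thyroperoxidase promoter measured by SteadyGlo luminescence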
[17] = OVCAR-3 cell viability loss – plate reader, dry powder samples, PAX8 inhibitor project, dose response (AID 743044); type: functional, cell-based

Paired box protein Pax-8, sequence (Q06710 whole entry): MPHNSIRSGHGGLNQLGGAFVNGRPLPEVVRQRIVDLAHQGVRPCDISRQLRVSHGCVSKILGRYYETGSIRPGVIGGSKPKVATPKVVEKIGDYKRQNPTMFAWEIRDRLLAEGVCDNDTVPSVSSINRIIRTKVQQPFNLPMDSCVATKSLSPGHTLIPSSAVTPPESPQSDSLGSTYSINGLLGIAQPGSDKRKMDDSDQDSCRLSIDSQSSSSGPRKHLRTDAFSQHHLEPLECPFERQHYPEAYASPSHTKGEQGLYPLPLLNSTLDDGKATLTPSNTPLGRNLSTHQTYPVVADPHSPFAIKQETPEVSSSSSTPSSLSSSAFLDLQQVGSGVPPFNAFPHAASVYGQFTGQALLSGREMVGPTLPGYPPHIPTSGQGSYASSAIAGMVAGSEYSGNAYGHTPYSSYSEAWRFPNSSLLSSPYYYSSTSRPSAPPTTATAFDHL
FAD-linked sulfhydryl oxidase ALR, sequence (P55789 whole entry): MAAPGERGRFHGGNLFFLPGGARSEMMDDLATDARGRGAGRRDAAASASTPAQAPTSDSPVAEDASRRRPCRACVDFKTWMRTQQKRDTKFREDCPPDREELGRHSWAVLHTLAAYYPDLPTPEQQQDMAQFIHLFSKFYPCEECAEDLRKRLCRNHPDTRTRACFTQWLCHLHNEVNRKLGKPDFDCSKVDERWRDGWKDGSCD
Estrogen receptor beta, sequence (Q92731 whole entry): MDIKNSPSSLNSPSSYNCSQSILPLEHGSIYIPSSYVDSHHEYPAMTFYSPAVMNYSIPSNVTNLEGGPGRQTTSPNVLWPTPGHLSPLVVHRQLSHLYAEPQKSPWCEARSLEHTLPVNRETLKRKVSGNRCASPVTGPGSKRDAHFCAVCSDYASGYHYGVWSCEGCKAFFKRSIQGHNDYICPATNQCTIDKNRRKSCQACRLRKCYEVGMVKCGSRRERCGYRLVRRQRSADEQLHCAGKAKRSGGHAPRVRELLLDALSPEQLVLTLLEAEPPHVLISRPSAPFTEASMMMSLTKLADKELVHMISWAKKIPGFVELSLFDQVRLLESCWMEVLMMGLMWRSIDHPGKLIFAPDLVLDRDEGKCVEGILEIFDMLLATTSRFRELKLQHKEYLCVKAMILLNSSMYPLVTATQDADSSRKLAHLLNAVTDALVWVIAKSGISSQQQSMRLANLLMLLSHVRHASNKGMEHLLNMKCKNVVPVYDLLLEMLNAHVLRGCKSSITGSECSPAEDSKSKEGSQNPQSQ

COc1ccccc1N=C(S)N(Cc1ccco1)Cc1cc2cc(C)ccc2nc1O
IC50 (Prothrombin): > 50 µM (not active)

CC(C)NC(=O)CSc1nc(-c2ccccc2)cs1
IC50 (Prothrombin): > 50 µM (not active)

Cc1ccc(N(CCCCN2C(=O)c3ccccc3C2=O)C(=O)c2cccc([N+](=O)[O-])c2)cc1
CC50 [1]: > 50 µM (active)
EC50 [2]: 33.2 µM (active)
IC50 (cells [3]): 15.8 µM (active)

CCOc1ccccc1NC(=O)Cn1c(-c2ccc(Cl)cc2)noc1=O
EC50 [4]: > 195 µM (not active)
CC50 [5]: > 40 µM (active)

CCCc1c(NC(=O)Nc2ccc(F)cc2)cnn1-c1ccccc1
CC50 [1]: 21.3 µM (active)
IC50 (Vero [6]): 2.12 µM (active)
CC50 (Vero [7]): > 25 µM (active)
IC50 (cells [3]): 4.51 µM (active)

O=C(/C=C/c1ccc(Cl)cc1)c1cccnc1
EC50 [8]: 1.75 µM (active)
EC50 [9]: 0.793 µM (active)

O=C(NCc1cccnc1)/C(=C/c1ccc(-c2cccc(Cl)c2)o1)S(=O)(=O)c1ccccc1
EC50 [8]: 2.02 µM (active)
EC50 [9]: 2.02 µM (active)
AC50 [10]: 1.73 µM (active)
AC50 (INS1): 6.06 µM (active)

CNC(=O)/C(C#N)=C/c1c(N(Cc2ccccc2)Cc2ccccc2)nc2c(C)cccn2c1=O
CC50 [1]: 10.1 µM (active)
AC50 [11]: > 120 µM (inactive)
EC50 (Protein RecA): 104 µM (active)
IC50 (cells [3]): 11.3 µM (active)

CCc1ccc(NC2CC(=O)N(c3ccc(OC)cc3OC)C2=O)cc1 (stereo not drawn)
IC50 (Prothrombin): > 50 µM (not active)

CCc1ccc2cccc3c2c1N=CN3C
AC50 [12]: 0.24 µM (active)
AC50 (Caspase-6): 6.79 µM (active)
AC50 [13]: 7.21 µM (active)

Cn1nc(CC(=O)Nc2ncc(Br)s2)c2ccccc2c1=O
IC50 (Estrogen receptor beta): > 50 µM (not active)

C=C(C)C1CC=C(CN2CCN(Cc3ccccc3)CC2)CC1 (stereo not drawn)
EC50 [14]: < 0.1 µM (active)
EC50 [15]: > 60 µM (not active)
EC50 (cells [16]): 0.189 µM (active)

Cc1nc2c(=O)[nH]c(=S)[nH]c2nc1O
AC50 (Caspase-6): 6.58 µM (active)
AC50 [13]: 16.2 µM (active)

C[C@@H]1CN([C@H](C)CO)C(=O)c2cc(NS(=O)(=O)c3cccs3)ccc2O[C@@H](C)CCCCO[C@H]1CN(C)Cc1ccc(Cl)c(Cl)c1
AC50 (Paired box protein Pax-8): 9.2 µM (active)
AC50 [17]: 46.5 µM (active)
